Experimental data reported in US20240390490A1, “PHARMACEUTICAL COMPOSITIONS FOR THE TREATMENT OF CANCERS” (Rutgers, The State University of New Jersey, priority 2021, published 2024).
Like-named read-outs stand apart in the source and are kept apart here.

Legend:
[1] = system: plasma cytokines and chemokines; test: Plasma cytokines multiplex immunoassay; assay type: in vivo, rat
Source text: After the end of the drug treatment period, plasma samples from control and drug-treated rats were processed and used for cytokine detection. Cytokines were quantified in plasma samples using the ProcartaPlex multiplex immunoassay technology. These immunoassays are bead-based assays for protein quantification based on the principles of a sandwich Elisa with the use of Luminex® xMAP® (multianalyte profiling) technology. The Rat Cytokine & Chemokine 22-plex ProcartaPlex Panel is a preconfigured multiplex immunoassay kit that measures 22 protein targets using Luminex xMAP technology. Plasma samples were diluted with universal assay buffer (1:1) and added into a 96-well flat bottom plate to the magnetic beads. The plate was sealed and covered before incubation of 2 hours at room temperature with 500 rpm shaking. After inserting the plate into the handheld magnetic plate washer, the plate was washed 3 times using a specific wash buffer. 25 μL of detection antibody mixture was to the plate and incubated it for 30 minutes at room temperature at 500 rpm. The plate was washed 3 times. Then 50 μL of SAPE solution were added to the plate before a novel 30-minute incubation at room temperature at 500 rpm. The plate was washed 3 times. Finally, 120 μL of reading buffer were add to the plate and incubated for 5 minutes at room temperature at 500 rpm before reading and analyzing with the Luminex™ instrument (MAGPIX® xPONENT®, R&D System, ThermoFisher). Median fluorescence index (MFI) was calculated and presented.

[2] = system: MDA-MB-231 cells; test: cells; conditions: read-out: Cell Viability IC50 (μM) ± SEM
Method: (§1) Cells in media with vehicle treatment are considered control wells. MTT (3-(4,5-dimethyl-2-thiazolyl)-2,5-diphenyl-2H-tetrazolium bromide) was prepared as a stock solution of 5 mg/mL in 1× phosphate-buffered saline (PBS, pH 7.2). At the end of the drug treatment period (24 or 48 or 72 hours), 10 μL of MTT solution was added to each well. After incubation for 4 hours at 37° C., 100 μL of solubilizing buffer (10% sodium dodecyl sulfate dissolved in 0.01 N HCl) was added to each well. After a 15-minute incubation at 37° C., the 96-well plate was read by a plate reader at 590 nm for absorbance density values to determine the cell viability. The cell viability (percentage of control) is calculated by using the following formula: (OD of treated well (−blank))/(mean OD control well (−blank))×100. […] Drug effects on these cells were determined in quadruplicate wells in three independent experiments.

[3] = system: MDA-MB-468 cells; test: cells; conditions: read-out: Cell Viability IC50 (μM) ± SEM
Method: as §1

[4] = system: T47D cells; test: cells
Method: as §1

[5] = system: MDA-MB-468 and T47D cells; test: Cell cycle analysis (PI staining); assay type: cell-based, human; conditions: 100 μM
Method: Cell cycle analysis of breast cancer cells was carried out using propidium iodide (PI) staining protocol according to the manufacturer's instructions (Nexcelom Bioscience LLC, Lawrence, MA). […] Then, cells were harvested by trypsinization, centrifuged at 2000 rpm for 5 minutes, washed with PBS (pH 7.4), and fixed in ice cold 100% ethanol for 15 minutes. The cells were spun down and resuspended in 150 μl of PI-staining solution provided with the Cellometer PI Cell Cycle Kit. The PI-stained cells were then subjected to analysis in the Cellometer Vision instrument (Nexcelom Bioscience LLC) and the data was captured on Cellometer Vision CBA software (Nexcelom Bioscience LLC) and analyzed by FCS Express 4 software (Molecule Devices, Corp., Sunnyvale, CA). Differences in fluorescence intensity were used to determine the percentage of cells in each phase of the cell cycle and represented as histograms for control and drug-treated samples.

[6] = cited from earlier work
[7] = system: MDA-MB-231, MDA-MB-468, and T47D cells; test: Western blot of apoptotic regulatory proteins in breast cancer cells; assay type: cell-based, human; conditions: 100-μM, 48 hours (Example 9)
Method: For protein analyses, tumor tissues from in vivo experiments, enriched NK cells from the spleen, and NK-92 MI cancer cell co-incubated samples were lysed with a buffer containing protease and phosphatase inhibitors (25 mM Tris-HCl, pH 7.4; 150 mM NaCl; 1% Nonidet P-40; 1 mM EDTA; and 5% glycerol with Pierce Halt Protease Inhibitor). Protein ([…]) from total lysate was loaded and separated on a 4-20% SDS-PAGE and transferred overnight to polyvinylidene difluoride membranes. Membranes were incubated with primary Ab for 12 hours at 4° C. in blocking buffer, 5% w/v nonfat dry milk in TBS, and 0.1% Tween 20. The following primary antibodies were purchased from Santa Cruz Biotechnology (Santa Cruz, CA): anti-perforin rabbit polyclonal (1:250), anti-granzyme B mouse monoclonal (1:200), anti-IFN-γ mouse monoclonal (1:250), anti-Snail (1:200), anti-Slug (1:200), and anti-Twist. Anti-E-cadherin (1:250), anti-N-cadherin (1:250), and anti-NKG2D goat polyclonal (1:500) were all from Abcam (Cambridge, MA). Membranes were washed and incubated with peroxidase-conjugated secondary Abs (1:5000; Vector Laboratories) for 1 hour at room temperature. Membranes were incubated with ECL western blot chemiluminescence reagent (Pierce) and exposed to x-ray film, which was developed, and densitometry was performed using Image J analysis software (National Institutes of Health). Each protein was normalized to corresponding intensities for β-actin.
The effects on apoptotic regulatory protein levels and signaling pathway were determined by treating MDA-MB-231, MDA-MB-468, and T47D cells with a 100-μM concentration of the drugs alone or in combination or vehicle alone for 48 hours. After the treatment period, cell were extracted and used for Western blot analysis of anti-apoptotic p-Bcl-xL and p-Bcl2, effector proteins such as p-Bax, pro-apoptotic molecule p-Bim, effector caspase 3 and Cytochrome c levels. Representative blots and mean densitometric values are presented as ratio of β-actin in the histograms. Data presented are mean±SEM (n=5-6 samples/group) and were analyzed using one-way ANOVA with the Newman-Keuls multiple comparisons post hoc test.

[8] = system: CT26 colon cancer cells; test: CT26 colon cancer subcutaneous tumors in BALB/c mice; assay type: in vivo, mouse; conditions: male and female mice
Method: Balb/c mice (both male and female) were obtained from Taconic Biosciences and injected with 1×10^6 cells of CT26. Once palpable tumors develop (˜50 mm3), animals were allocated into 6 groups (3 mice/group). […] Mice were monitored every day. Tumor volume and mice weight were measured daily. Animals were euthanized when the tumor reached 2,000 mm^3. […] For tumor growth study, Mouse CT26 colon cancer cells were grown until about 90% confluence just 1 day before injection. […] Three dimensions of tumor were measured using electronic calipers, and tumor volumes were calculated by the formula as, L×W^2/2. The mean±SE of tumor volume was calculated weekly for each experimental group and the data are expressed as mean absolute tumor volume.

With `CC1(C)SSC(C)(C)[C@@H](NC(=O)[C@@H](N)Cc2ccc(O)cc2)C(=O)NCC(=O)N[C@@H](Cc2ccccc2)C(=O)N[C@H]1C(=O)O` [DPDPE, (D-Pen^2, D-Pen^5)-enkephalin] the “chemokines RANTES and MCP-1” value [1] was “inhibited”, the IC50 ([2]; MDA-MB-231, 24 h) was 140.4 ± 0.39 µM and the IC50 ([2]; MDA-MB-231, 48 h) was 120.8 ± 0.36 µM. For the same compound, the IC50 ([2]; MDA-MB-231, 72 h) was 119.9 ± 1.07 µM, the IC50 ([3]; MDA-MB-468, 24 h) was 115 ± 1.23 µM and the IC50 ([3]; MDA-MB-468, 48 h) was 118 ± 1.22 µM. For the same compound, the IC50 ([3]; MDA-MB-468, 72 h) was 120 ± 2.19 µM, the IC50 ([4]; read-out: Cell Viability IC50 (μM) ± SEM, 24 h) was 125.1 ± 1.21 µM and the IC50 ([4]; read-out: Cell Viability IC50 (μM) ± SEM, 48 h) was 120.2 ± 1.17 µM. The IC50 ([4]; read-out: Cell Viability IC50 (μM) ± SEM, 72 h) was 120.46 ± 0.04 µM.

In the case of `O=C1CC[C@@]2(O)[C@H]3Cc4ccc(O)c5c4[C@@]2(CCN3CC2CC2)[C@H]1O5` [NTX, 17-(cyclopropylmethyl)-4,5α-epoxy-3,14-dihydroxymorphinan-6-one], the IFN-γ [1] is reported as “elevated”, the “chemokines RANTES and MCP-1” value [1] is reported as “inhibited” and the “number of cells in the G0/G1 cycle” value [5] is reported as “moderately but not significantly reduced”. The water solubility [6] was “not water soluble”, the “anti-apoptotic Bcl-xL, p-Bcl-xL, Bcl-2, and p-Bcl-2” value [7] was “downregulated” and the “levels of Bax, p-Bax and p-Bim” value [7] was “increased”. The “levels of Cytochrome c” value [7] was “increased”, the IC50 ([2]; Homo sapiens, MDA-MB-231, 24 h) was 140.8 ± 0.15 µM and the IC50 ([2]; Homo sapiens, MDA-MB-231, 48 h) was 120.5 ± 0.38 µM. The IC50 ([2]; Homo sapiens, MDA-MB-231, 72 h) was 121 ± 1.65 µM, the IC50 ([3]; Homo sapiens, MDA-MB-468, 24 h) was 122.4 ± 0.63 µM and the IC50 ([3]; Homo sapiens, MDA-MB-468, 48 h) was 121 ± 1.82 µM. The IC50 ([3]; Homo sapiens, MDA-MB-468, 72 h) was 120 ± 1.23 µM, the IC50 ([4]; Homo sapiens, 24 h, read-out: Cell Viability IC50 (μM) ± SEM) was 125 ± 1.37 µM and the IC50 ([4]; Homo sapiens, 48 h, read-out: Cell Viability IC50 (μM) ± SEM) was 122 ± 1.72 µM. The IC50 ([4]; Homo sapiens, 72 h, read-out: Cell Viability IC50 (μM) ± SEM) was 120 ± 1.61 µM.

With `CC(C)NCC(O)COc1cccc2ccccc12` (stereo not drawn) [PRO, propranolol] the IFN-γ [1] was “elevated”, the “chemokines RANTES and MCP-1” value [1] was “inhibited” and the “inflammatory cytokines and chemokines G-CSF/CSF-3, IL-1 alpha, IL-10, IL-6, IL-5, Gro-α, TNF-α, MCP-3, and IL-17A” value [1] was “inhibited”. For the same compound, the “anti-apoptotic Bcl-xL, p-Bcl-xL, Bcl-2, and p-Bcl-2” value [7] was “downregulated”, the “levels of Bax, p-Bax and p-Bim” value [7] was “increased” and the “levels of Cytochrome c” value [7] was “increased”. The tumor volume [8] was “decreasing tumor volume”.
